Test results published in PubChem BioAssay (NCI).
Where “and” joins values, the source holds several entries; their conditions need not be identical. Equal values may be shown once.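 Method: 48-hour compound exposure of cells in 96-well plates, five concentrations, linear interpolation of endpoints. At the TGI there is no net growth.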

What was measured:
Test in all cases: DTP human tumour cell line panel, 48 h
NCI-H460 lung = tested on: NCI-H460 lung
HOP-62 NSCLC = tested on: HOP-62 NSCLC
PC-3 prostate = tested on: PC-3 prostate
M14 melanoma = tested on: M14 melanoma
786-0 renal = tested on: 786-0 renal
TK-10 renal = tested on: TK-10 renal
MALME-3M melanoma = tested on: MALME-3M melanoma
HCT-15 colon = tested on: HCT-15 colon
NCI/ADR-RES ovarian = tested on: NCI/ADR-RES ovarian
BT-549 breast = tested on: BT-549 breast
HCT-116 colon = tested on: HCT-116 colon
A549 NSCLC = tested on: A549 NSCLC
UACC-257 melanoma = tested on: UACC-257 melanoma
SF-539 CNS = tested on: SF-539 CNS
OVCAR-8 ovarian = tested on: OVCAR-8 ovarian
HOP-92 NSCLC = tested on: HOP-92 NSCLC

Row | Compound | TGI (NCI-H460 lung) [µM] | TGI (HOP-62 NSCLC) [µM] | TGI (PC-3 prostate) | TGI (M14 melanoma) [µM] | TGI (786-0 renal) | TGI (TK-10 renal) [µM] | TGI (MALME-3M melanoma) [µM] | TGI (HCT-15 colon) [µM] | TGI (NCI/ADR-RES ovarian) [µM] | TGI (BT-549 breast) [µM] | TGI (HCT-116 colon) [µM] | TGI (A549 NSCLC) [µM] | TGI (UACC-257 melanoma) [µM] | TGI (SF-539 CNS) [µM] | TGI (OVCAR-8 ovarian) [µM] | TGI (HOP-92 NSCLC) [µM]
1 | COc1ccc(C2Oc3c(cccc3OC)C=C2[N+](=O)[O-])cc1OC (stereo not given) | > 100 | > 100 | 26.5 µM | 19.6 | 19.7 µM | 81.8 | 38.7 | 24 | 53.4 | 31 | 17.4 | > 100 | – | – | – | –
2 | O=C1CN(c2cccc(C(F)(F)F)c2)C(=O)CN1NCNN1CC(=O)N(c2cccc(C(F)(F)F)c2)CC1=O | > 100 | > 100 | > 100 µM | > 100 | > 100 µM | > 100 | – | > 100 | > 100 | – | > 100 | > 100 | > 100 | > 100 | > 100 | –
3 | Cc1ccc(S(=O)(=O)Nn2c(-c3ccccc3)c(C#N)c(-c3ccc(Cl)cc3)c(C#N)c2=O)cc1 | > 100 | > 100 | 98 µM | 41.4 | 30.9 µM | > 100 | – | > 100 | – | 61.2 | 37.3 | > 100 | > 100 | 55.7 | – | 79.7
4 | CCOC(=O)Cn1c(=O)c2nc(SC)sc2n(-c2ccc(C)cc2)c1=S | > 100 | 42.5 | > 100 µM | > 100 | 49.1 µM | > 89.8 | > 92 | > 100 | > 100 | – | > 100 | > 100 | > 100 | > 75 | > 100 | 68.1
5 | COC(=O)c1cc(C)ccc1/C=C1\Cc2cc(C)c(C)cc2C1=O | > 100 | > 100 | > 100 µM | > 100 | > 100 µM | > 100 | > 100 | > 100 | – | > 100 | > 100 | > 100 | > 100 | > 100 | > 100 | > 100
6 | CC(=O)c1ccc(-c2oc(-c3ccccc3)cc2-c2ccc3c(c2)OCO3)s1 | > 100 | > 100 | – | > 100 | > 100 µM | > 100 | – | – | > 100 | – | > 100 | – | > 100 | > 100 | > 100 | > 100
7 | CC1CC(N)=Nc2ccccc2N1Cc1ccccc1 (stereo not given) | 26.8 | 27.2 | 28.2 µM | 29.3 | > 100 µM | 28.2 | 15.4 | 29.9 | 28.4 | 26 | > 100 | 32.7 | 25.5 | – | 27.8 | –
8 | COc1ccc(-c2oc3c(CC(=O)O)cccc3c(=O)c2OC)cc1 | – | > 100 | > 100 µM | > 100 | > 100 µM | > 100 | > 100 | – | > 100 | > 100 | > 100 | > 100 | > 100 | > 100 | > 100 | –
9 | CN1C(=O)n2c(nc3ccccc32)C(N=[N+]=[N-])(N=[N+]=[N-])C1=O (stereo not given) | > 100 | > 100 | – | > 100 | > 100 µM | > 100 | > 100 | > 100 | – | – | > 100 | > 100 | > 100 | > 100 | > 100 | > 100
10 | CN(C(=O)OC(C)(C)C)[C@H]1CCCC[C@H]1N1CCCC1 | – | > 100 | > 100 µM | > 100 | > 100 µM | > 100 | > 100 | > 100 | > 100 | > 100 | > 100 | > 100 | > 100 | > 100 | > 100 | –
11 | CS(=O)(=O)c1nc(N)nc2nc[nH]c12 | > 100 | > 100 | – | > 100 | > 100 µM | > 100 | – | > 100 | – | – | > 100 | > 100 | > 100 | > 100 | > 100 | > 100
12 | CC(=O)N1NC(c2ccccc2)=CC(=O)/C1=C/C(=O)c1ccccc1 | > 100 | > 100 | > 100 µM | > 100 | > 100 µM | > 100 | > 100 | > 100 | > 100 | – | > 100 | > 100 | > 100 | > 100 | > 100 | > 100
13 | CC(=O)OCc1nc(C#N)c(N)o1 | > 100 | > 100 | > 100 µM | – | > 100 µM | > 100 | > 100 | > 100 | – | > 100 | > 100 | – | > 100 | – | – | > 100
14 | CC1=CC(C)C(C)N(CCNC(=O)Nc2ccccc2)c2ccccc21 (stereo not given) | 74.4 | 63.4 | 69.2 µM | 70 | > 100 µM | 78.2 | 70.2 | 72 | 67.9 | – | 35 | 55.7 | 42.7 | 68.3 | 54.3 | –
15 | Cc1nnc(Nc2ccc(Cl)cc2)o1 | > 10 | > 10 | > 10 µM | > 10 | > 10 µM | > 10 | > 10 | > 10 | > 10 | – | > 10 | > 10 | > 10 | > 10 | > 10 | –
16 | Cc1ccc2c(c1)C(=O)/C(=C1/CCc3ccc(C)cc31)C2 | > 100 | > 100 | – | > 100 | > 100 µM | > 100 | > 100 | > 100 | > 100 | > 100 | > 100 | > 100 | > 100 | > 100 | > 100 | > 100
17 | CC(C)[Si](OC12CCC(CC1O)CC2C(=O)O)(C(C)C)C(C)C (stereo not given) | 20.2 | 27.5 | 25 µM | 29.3 | 26.8 µM | 17.1 | – | 24.8 | 33.6 | – | 23.8 | 28.3 | 36.5 | > 100 | 42.4 | 27.4
18 | CC(C#N)c1cn(S(=O)(=O)c2ccccc2)c2ccccc12 (stereo not given) | > 100 | > 100 | – | > 100 | > 100 µM | > 100 | > 100 | > 100 | – | – | > 100 | > 100 | > 100 | > 100 | > 100 | 53.8
19 | O=C(Sc1c(-c2ccccc2)c(=O)n(-c2ccccc2)c(=S)n1-c1ccccc1)c1ccc(Cl)cc1 | > 100 | > 100 | – | > 100 | > 100 µM | > 100 | > 100 | > 100 | > 100 | – | > 100 | > 100 | > 100 | > 100 | > 100 | > 100
20 | CCC1(O)CC(OC2CC(N(C)C)C(OC3CC(O)C(OC4OC(C)C(=O)C=C4N)C(C)O3)C(C)O2)c2c(O)c3c(c(O)c2C1C(=O)OC)C(=O)c1cccc(O)c1C3=O (stereo not given) | 0.0151 | 0.855 | 0.294 µM and 0.0742 µM | 0.0268 | 0.133 µM and 0.147 µM | 0.0778 | 0.0947 | 1.17 | – | – | > 100 | – | – | 0.236 | 0.261 | 1.67
21 | COC(=O)/C=C\c1ccc2c(c1)CC1(C2)Cc2ccc(/C=C/C(=O)OC)cc2C1 (stereo not given) | > 100 | 25.3 | > 31.6 µM | > 31.6 | > 31.6 µM | > 31.6 | > 31.6 | > 31.6 | > 31.6 | – | > 31.6 | > 31.6 | > 31.6 | > 31.6 | > 31.6 | > 31.6
22 | CCc1cc(-c2nsc(=O)o2)c(S(=O)(=O)CC)s1 | > 100 | > 100 | 85.1 µM | > 100 | > 100 µM | > 100 | – | > 100 | > 100 | – | > 100 | > 100 | – | > 100 | > 100 | > 100
23 | C[C@]12CCC3c4ccc(OC(=O)c5ccccc5)cc4CC[C@H]3C1CC[C@@H]2OC(=O)C12OC1CCC2=O (stereo not given in full) | 8.3 | 11.9 | – | 12 | 6.4 µM | 33.9 | 13.3 | 31.3 | – | – | 7.18 | 10.3 | 14.8 | 4.31 | 31.3 | 35.6
24 | CCN1C(C)=NC2C(=O)c3ccccc3C(=O)C21 (stereo not given) | > 100 | > 100 | – | > 100 | > 100 µM | > 100 | > 100 | > 100 | – | – | > 100 | > 100 | > 100 | > 100 | > 100 | –
25 | O=C1O/C(=C\c2ccc(O)c(Br)c2)C(c2ccc(O)cc2)=C1Cl | 76.6 | > 100 | > 100 µM | > 100 | > 100 µM | > 100 | > 100 | > 100 | 82.4 | – | > 100 | > 100 | > 100 | > 100 | > 100 | > 100
